Legend:
[1] = biological target: prolyl endopeptidase (Elizabethkingia meningoseptica, UniProt P27028); format: biochemical; settings: amount per test tube for 50% inhibition; pH 7.0, 35° C., 10 minutes
Experimental: Measurement of anti-prolyl endopeptidase activity
The method of Yoshimoto and Tsuru [T. Yoshimoto and D. Tsuru, Agric. […] A mixture of 0.0025M Z-glycyl-proline-β-naphthylamide (0.25 ml), 0.1M phosphate buffer (pH, 7.0; 0.99 ml) and a solution of a particular anti-propyl endopeptidase compound (0.01 ml) was incubated in a test tube at 37° C. for 3 minutes. Thereafter, 0.1 ml of a solution of prolyl endopeptidase (0.2 U/ml) was added and the mixture was incubated at 35° C. for 10 minutes. After the reaction, 2.0 ml of Triton X-100 in 1M acetate buffer (pH, 4.0) was added to the reaction mixture so that the final concentration of the surfactant was 10%. The mixture was left at room temperature for 15 minutes and the absorbance (a) at 410 nm was measured.
A sample of a blind test was prepared by using the buffer instead of the anti-prolyl endopeptidase compound and its absorbance (b) was also measured. The percent inhibition of prolyl endopeptidase was calculated by the formula: […]

[2] = Acute toxicity test in mice; settings: mouse, in vivo, ip; intraperitoneal, in DMSO, five mice per group
Experimental: Acute toxicity test in mice
Test samples were prepared by dissolving the respective compounds in DMSO, and a portion (0.1 ml) of the so conditioned test sample was administered intraperitoneally to each of the mice used. Each of the treated groups consisted of five mice.

[3] = test system: experimental amnesia caused in rats by scopolamine; assay: Preventive effect against experimental amnesia caused in rats by scopolamine (passive avoidance learning, intraperitoneal administration); format: in vivo, Wister male rats; settings: for No. of avoidances during learning / Initial avoidance time: before scopolamine (3 mg/kg i.p.); for Initial avoidance time: learning; for Avoidance time After 24 hrs / No. of amnesic rats/No. of rats tested / Percentage amnesia: scopolamine 3 mg/kg i.p. after learning, 24 hrs
Experimental: Measurement of preventive effect against experimental amnesia caused in rats by scopolamine (Intraperitoneal administration)
Several of the anti-prolyl endopeptidase compounds according to the present invention were checked for their ability to prevent the inhibition of long-term memory fixation by scopolamine. […] One hour after the administration, electric shocks were applied to the rats so that they would acquire passive avoidance learning. Immediately thereafter, scopolamine was administered intraperitoneally to each rat in an amount of 3 mg per kg of body weight.
The results of the test were assessed 24 hours after the administration of scopolamine. The number of amnesic rats and of sound rats was counted for each of the control group (rats to which the test compounds were not administered but to which only scopolamine and physiological saline were administered intraperitoneally) and the treated group (rats to which both the test compound and scopolamine were administered).

Chain of prolyl endopeptidase (P27028 21-705): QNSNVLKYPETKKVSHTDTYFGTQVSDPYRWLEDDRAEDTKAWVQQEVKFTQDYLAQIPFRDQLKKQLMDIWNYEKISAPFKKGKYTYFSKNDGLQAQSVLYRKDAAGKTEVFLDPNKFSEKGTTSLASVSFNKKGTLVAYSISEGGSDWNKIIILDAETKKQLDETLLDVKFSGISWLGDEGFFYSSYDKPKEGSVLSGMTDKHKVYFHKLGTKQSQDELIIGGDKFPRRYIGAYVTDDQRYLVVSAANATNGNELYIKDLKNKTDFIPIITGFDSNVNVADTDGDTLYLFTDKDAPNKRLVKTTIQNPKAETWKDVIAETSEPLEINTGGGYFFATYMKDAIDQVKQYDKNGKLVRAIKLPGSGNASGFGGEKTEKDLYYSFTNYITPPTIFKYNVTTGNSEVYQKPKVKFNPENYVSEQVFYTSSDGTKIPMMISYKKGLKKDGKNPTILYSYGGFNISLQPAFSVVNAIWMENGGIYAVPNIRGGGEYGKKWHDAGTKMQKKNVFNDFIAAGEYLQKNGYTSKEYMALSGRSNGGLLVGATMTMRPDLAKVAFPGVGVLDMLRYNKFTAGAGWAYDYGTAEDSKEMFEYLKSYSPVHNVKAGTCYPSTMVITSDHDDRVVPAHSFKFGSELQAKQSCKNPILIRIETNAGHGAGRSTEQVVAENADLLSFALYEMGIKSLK

O=C([C@@H]1CCCN1C(=O)CCCCOc1ccccc1/C=C/c1ccccc1)N1CCCC1 [compound 40] showed an IC50 [1] of 0.002 μg/test tube.

With CCCCC/C=C\C/C=C\CCCCCCCC(=O)N1CCC[C@H]1C(=O)N1CCCC1 [compound 46] the IC50 [1] was 0.015 μg/test tube.

For CC(C)C[C@H](NC(=O)CCCOc1ccc(Cc2ccccc2)cc1)C(=O)N1CCCC1 [compound 12], the IC50 [1] was 0.08 μg/test tube.

Compound O=C([C@@H]1CCCN1C(=O)CCCOc1ccccc1)N1CCCC1 [compound 21] has an IC50 [1] of 0.001 μg/test tube and an LD50 [2] of 350 mg/kg.

Compound O=C([C@@H]1CCCN1C(=O)CCCOc1ccccc1CCc1ccccc1)N1CCCC1 [compound 37] has an IC50 [1] of 0.002 μg/test tube and an LD50 [2] of 350 mg/kg.

CC(C)C[C@H](NC(=O)CCCOc1ccccc1/C=C/c1ccccc1)C(=O)N1CCCC1 [compound 9] gave an IC50 [1] of 0.03 μg/test tube.

Compound CCCC[C@H](NC(=O)CCCc1ccccc1)C(=O)N1CCCC1 [compound 5] has an IC50 [1] of 0.15 μg/test tube.

O=C([C@@H]1CCCN1C(=O)CCOc1ccccc1/C=C/c1ccccc1)N1CCCC1 [compound 39] showed an IC50 [1] of 0.003 μg/test tube.

In the case of CC(C)C[C@H](NC(=O)CCCc1ccccc1)C(=O)N1CCCC1 [Compound No. 2], the “No. of avoidances during learning” value ([3]; 25 mg/kg i.p.) is reported as 2.2, the Initial avoidance time ([3]; 25 mg/kg i.p.) is reported as 2.7 s and the “Avoidance time After 24 hrs” value ([3]; 25 mg/kg i.p.) is reported as 264.6 s. The “No. of amnesic rats/No. of rats tested” value ([3]; 25 mg/kg i.p.) was 2/10, the Percentage amnesia ([3]; 25 mg/kg i.p.) was 20 and the IC50 [1] was 0.15 μg/test tube. The LD50 [2] was greater than 600 mg/kg.

CCC(=O)c1ccccc1OCCCC(=O)N1CCC[C@H]1C(=O)N1CCCC1 [compound 24] gave an IC50 [1] of 0.004 μg/test tube.

For CC(C)[C@H](NC(=O)CCCOc1ccc(Cc2ccccc2)cc1)C(=O)N1CCCC1 [compound 13], the IC50 [1] was 0.04 μg/test tube.

O=C(c1ccccc1)c1ccccc1OCCCC(=O)N1CCC[C@H]1C(=O)N1CCCC1 [compound 32] showed an IC50 [1] of 0.001 μg/test tube.

In the case of CCCCCCCC/C=C\CCCCCCCC(=O)N1CCC[C@H]1C(=O)N1CCCC1 [Compound No. 43, N-(N-oleoyl-L-prolyl)pyrrolidine], the “No. of avoidances during learning” value ([3]; 1 mg/kg i.p.) is reported as 3.4, the Initial avoidance time ([3]; 1 mg/kg i.p.) is reported as 1.9 s and the “Avoidance time After 24 hrs” value ([3]; 1 mg/kg i.p.) is reported as 240.8 s. For the same compound, the “No. of amnesic rats/No. of rats tested” value ([3]; 1 mg/kg i.p.) was 2/10, the Percentage amnesia ([3]; 1 mg/kg i.p.) was 20 and the IC50 [1] was 0.02 μg/test tube.

In the case of O=C(/C=C/c1ccccc1OCCCC(=O)N1CCC[C@H]1C(=O)N1CCCC1)c1ccccc1 [compound 41], the IC50 [1] is reported as 0.001 μg/test tube.

In the case of CCCCCCCCCc1ccc(OCCCC(=O)N2CCC[C@H]2C(=O)N2CCCC2)cc1 [compound 25], the IC50 [1] is reported as 0.008 μg/test tube.

For O=C([C@@H]1CCCN1C(=O)CCCOc1ccc(/C=C/c2ccccc2)cc1)N1CCCC1 [compound 36], the IC50 [1] was 0.003 μg/test tube.

For CC(C)[C@H](NC(=O)CCCc1ccccc1)C(=O)N1CCCC1 [Compound No. 1, N-[N-(γ-phenyl)butyryl-L-valyl]pyrrolidine], the “No. of avoidances during learning” value ([3]; 25 mg/kg i.p.) was 1.8, the Initial avoidance time ([3]; 25 mg/kg i.p.) was 2.4 s and the “Avoidance time After 24 hrs” value ([3]; 25 mg/kg i.p.) was 243.0 s. For the same compound, the “No. of amnesic rats/No. of rats tested” value ([3]; 25 mg/kg i.p.) was 3/10 and the Percentage amnesia ([3]; 25 mg/kg i.p.) was 30.

For O=C([C@@H]1CCCN1C(=O)CCCc1ccccc1)N1CCCC1 [Compound No. 18, N-[N-(γ-phenyl)butyryl-L-prolyl]pyrrolidine], the “No. of avoidances during learning” value ([3]; 5 mg/kg i.p.) was 1.8, the Initial avoidance time ([3]; 5 mg/kg i.p.) was 2.8 s and the “Avoidance time After 24 hrs” value ([3]; 5 mg/kg i.p.) was 300.0 s. For the same compound, the “No. of amnesic rats/No. of rats tested” value ([3]; 5 mg/kg i.p.) was 0/10 and the Percentage amnesia ([3]; 5 mg/kg i.p.) was 0.

With O=C(/C=C/c1ccccc1)c1ccccc1OCCCC(=O)N1CCC[C@H]1C(=O)N1CCCC1 [compound 42] the IC50 [1] was 0.0008 μg/test tube and the LD50 [2] was 360 mg/kg.

In the case of O=C([C@@H]1CCCN1C(=O)COc1ccc(Cl)cc1)N1CCCC1 [compound 20], the IC50 [1] is reported as 0.20 μg/test tube.

Compound O=C([C@@H]1CCCN1C(=O)CCCOc1ccccc1/C=C/c1ccccc1)N1CCCC1 [Compound No. 35, N-{N-[γ(o-(E)-stilbenyloxy)butyryl]-L-prolyl)pyrrolidine] has an IC50 [1] of 0.001 μg/test tube.

CC(C)[C@H](NC(=O)CCCOc1ccccc1/C=C/c1ccccc1)C(=O)N1CCCC1 [compound 10] showed an IC50 [1] of 0.02 μg/test tube.

In the case of O=C(c1ccccc1)c1ccc(OCCCC(=O)N2CCC[C@H]2C(=O)N2CCCC2)cc1 [compound 31], the IC50 [1] is reported as 0.004 μg/test tube.

In the case of C=CCc1ccccc1OCCCC(=O)N1CCC[C@H]1C(=O)N1CCCC1 [compound 26], the IC50 [1] is reported as 0.002 μg/test tube and the LD50 [2] is reported as 390 mg/kg.

O=C([C@@H]1CCCN1C(=O)CCCOc1cccc(Cc2ccccc2)c1)N1CCCC1 [compound 33] showed an IC50 [1] of 0.0004 μg/test tube.

Work on C=CCOc1ccccc1CCCC(=O)N1CCC[C@H]1C(=O)N1CCCC1 [compound 27] yielded an IC50 [1] of 0.01 μg/test tube and an LD50 [2] of 390 mg/kg.

Compound O=C([C@@H]1CCCN1C(=O)CCCOc1ccccc1OCc1ccccc1)N1CCCC1 [compound 30] has an IC50 [1] of 0.005 μg/test tube.

With CCCCCCCC/C=C\CCCCCCCC(=O)N[C@@H](CCCC)C(=O)N1CCCC1 [compound 16] the “No. of avoidances during learning” value ([3]; 20 mg/kg i.p.) was 2.1, the Initial avoidance time ([3]; 20 mg/kg i.p.) was 2.2 s and the “Avoidance time After 24 hrs” value ([3]; 20 mg/kg i.p.) was 252.0 s. The “No. of amnesic rats/No. of rats tested” value ([3]; 20 mg/kg i.p.) was 2/10, the Percentage amnesia ([3]; 20 mg/kg i.p.) was 20 and the IC50 [1] was 0.07 μg/test tube.

For CCC(=O)c1ccc(OCCCC(=O)N2CCC[C@H]2C(=O)N2CCCC2)cc1 [compound 23], the IC50 [1] was 0.003 μg/test tube.

Work on O=C([C@@H]1CCCN1C(=O)CCCCOc1ccc(Oc2ccccc2)cc1)N1CCCC1 [compound 29] yielded an IC50 [1] of 0.009 μg/test tube.

With O=C([C@@H]1CCCN1C(=O)CCCOc1ccccc1Cc1ccccc1)N1CCCC1 [compound 34] the IC50 [1] was 0.001 μg/test tube.

With O=C([C@@H]1CCCN1C(=O)CCCOc1ccccc1O)N1CCCC1 [compound 22] the IC50 [1] was 0.008 μg/test tube.
